Laboratory results: PMC11091976, “Shorter Peptide Nucleic Acid Probes Improve Affibody-Mediated Peptide Nucleic Acid-Based Pretargeting” (ACS Pharmacology & Translational Science, 2024)

Key:
[1] = biological target: Z-HP12; assay: SPR off-rate screening (single-cycle kinetics), immobilized Z-HP12; assay type: binding; details: primary probe HP12 (immobilized Z-HP12), 25 °C, PBS-T pH 7.4, 120 nM HP16/HP20 or 362 nM HP21/HP19, dissociation 150 min, 1:1 model, duplicates
Experimental: The stability of new pretargeting probe combinations was assessed using SPR, and duplex melting temperatures were measured with UV–vis spectroscopy. In SPR, a high concentration of the secondary probe was injected over immobilized primary agents, and the dissociation of the hybridized complexes was monitored over 150 min (see Figures 3A, S22, and Table 2).
(§1) We utilized SPR on a Biacore T200 instrument (Cytiva) to examine how secondary PNA probes (6-mer HP19, 7-mer HP21, 8-mer HP20, and 9-mer HP16) bind to primary agents. These experiments were conducted using dextran-coated CM5 sensor chips and PBS-T buffer at pH 7.4. The ligands were immobilized through a standard EDC/NHS coupling method, and the chip surface was sealed with ethanolamine. A reference surface with no primary agent was also included.
For ranking the off-rate (kd) of the secondary probes, we employed single-cycle kinetics (SCK) at 25 °C with a flow rate of 50 μL/min. […] Secondary PNA probes were injected at various concentrations, and dissociation was monitored for 10,000 s. To regenerate the chip surface, we used two 30 s injections of 10 mM glycine-HCl, pH 1.5.
(§2) All SPR experiments were performed in duplicate, and data analysis was conducted using the Biacore T200 Evaluation software version 2.0 with a 1:1 binding model.
Figure S22: Representative SPR sensorgrams of the dissociation phase of HP16 (9-mer), HP20 (8-mer), HP21 (7-mer) and HP19 […]
After injection with the secondary probe
(120 nM of HP16 and HP20 or 362 nM of HP21 and HP19) the dissociation of the formed complex was followed for 150 minutes. All experiments were done in duplicates, and the data presented is double-referenced (reference channel and buffer injection are subtracted).
(1 picture or pasted object on this page, not shown here)

[2] = system: HP15; assay: UV melting of PNA:PNA duplex with primary probe HP15; assay type: physicochemical; details: UV 260 nm, 20-95 °C at 1 °C/min, 5 μM each probe, 10 mM phosphate buffer, 10 mM KCl, pH 7.4
Experimental: (§3) The melting temperatures of secondary probes after duplex formation with primary probes were also measured by monitoring the absorbance at 260 nm as a function of temperature (see Figure S23). All probe pairs had melting temperatures well above 37 °C (body temperature) and ranged from 51 °C for the HP6:HP19 pair with 6 complementary bases to 82 °C for the previously studied HP15:HP18 pair with 15 complementary bases (see Figure 3B and Table 2). […] This secondary structure is typically adopted by antiparallel and L-amino acid-modified PNA–PNA duplexes at neutral pH.[49]
(§4) Figure S23: Normalized temperature melting profiles from 20–95°C for different primary and secondary probe pairs. UV melting curves at 260 nm. (A) HP15 (15-mer) toward secondary 15-, 12- and 9-mers. (B) HP12 (12-mer) toward secondary 12-, 9-, 8-, 7- and 6-mers. (C) HP9 (9-mer) toward secondary 9-, 8-, 7- and 6-mers. (D) HP6 (6-mer) toward secondary 6-mer.
(§5) Concentrations of duplexes in A–D are 5 μM in 10 mM […] with 10 mM KCl at pH 7.4.
(§6) (also on this page, place not known: Fraction melted Fraction meltedFraction melted Fraction melted) […]
(§7) Supplementary Material and methods […]
(§8) Biophysical characterization of PNA:PNA duplexes using CD Spectroscopy and […]
Circular dichroism (CD) and UV melts of PNA:PNA duplexes were measured on a CD spectrometer (Applied Photophysics, Leatherhead, UK) with Peltier temperature control and an external temperature probe. […]
(§9) from 20°C to 95°C with a 1°C/min temperature gradient. Simultaneously, the UV absorbance at 260 nm was recorded as a function of temperature. Fraction melted data was calculated […]
(§10) Fraction melted = 1 ― UVds― UVss , where UVss and UVds are the UV absorbances at 95°C and 20°C, respectively. The melting temperature (Tm) was determined as the maximum of the first derivative of the melting curve and was computed using the Global 3 analysis software (Applied Photophysics, […]
CD spectra in the range of 200–300 nm were recorded for all hybridized PNA:PNA pairs at 20°C before and after the UV melting experiments. […]

[3] = system: Z-HP15; assay: Multicycle kinetic SPR, immobilized Z-HP15; assay type: binding; details: MCK SPR
Experimental: M^–1 s^–1, as well as the slowest dissociation rate constant (kd) at 3.4 × 10^–5 s^–1.
as §1
Association and dissociation times were set at 700 and 1800 s, respectively, with regeneration accomplished through a 30 s injection of 10 mM glycine-HCl, pH 1.5.
as §2

[4] = system: HP9; assay: UV melting of PNA:PNA duplex with primary probe HP9; assay type: physicochemical; details: UV 260 nm, 20-95 °C at 1 °C/min, 5 μM each probe, 10 mM phosphate buffer, 10 mM KCl, pH 7.4
Experimental: as §3, §4, §5, §6, §7, §8
Circular dichroism (CD) and UV melts of PNA:PNA duplexes were measured on a CD spectrometer (Applied Photophysics, Leatherhead, UK) with Peltier temperature control and an external temperature probe. RP-HPLC purified and lyophilized PNA probes were dissolved in 10 mM phosphate buffer with 10 mM KCl at pH 7.4. Samples contained both primary and complementary secondary PNA probes at a final concentration of 5 µM for each probe. These samples were initially heated to 95°C for five minutes, allowed to cool to room temperature, and then transferred to a quartz cuvette with a 1.0 cm path length. A temperature probe was inserted into the solution through the cuvette's rubber cap. […]
as §9, §10
CD spectra in the range of 200–300 nm were recorded for all hybridized PNA:PNA pairs at 20°C before and after the UV melting experiments. All CD spectra were baseline subtracted and presented as an average of five scans.

DOTA-AEEA-SS-aacaccagg-EEY-NH2 [HP16, 9-mer secondary PNA probe with DOTA]
kd [1]: 1.3 × 10^–5 s^–1 | Tm [2]: 73 °C | ka ([3]; primary probe HP15 (Z-HP15 immobilized), 25 °C, 1.4-70 nM, 1:1 model, duplicates): 1.0 × 10^5 M^–1 s^–1 | Kd ([3]; primary probe HP15, 25 °C): 0.32 nM | kd ([3]; primary probe HP15, 25 °C): 3.4 × 10^–5 s^–1 | Kd ([3]; primary probe HP15, 37 °C): 0.44 nM | ka ([3]; primary probe HP15, 37 °C): 1.8 × 10^5 M^–1 s^–1 | kd ([3]; primary probe HP15, 37 °C): 8.1 × 10^–5 s^–1 | Tm [4]: 65 °C
